Columns and labels:
[1] = molecular target: E3 ubiquitin-protein ligase XIAP (Homo sapiens, UniProt P98170); assay: (§1) For cIAP-1 BIR3 and cIAP-2 BIR3 assays, a fluorescently labeled Smac mimetic (Smac-2F) was used as the fluorescent probe. The Kd values of Smac-2F to cIAP-1 BIR3 and cIAP-2 BIR3 were determined by monitoring the total fluorescence polarization of mixtures composed with the fluorescent probe at a fixed concentration and proteins with increasing concentrations up to full saturation. Fluorescence polarization values were measured using the Infinite M-1000 plate reader (Tecan U.S., Research Triangle Park, N.C.) in Microfluor 2 96-well, black, round-bottom plates (Thermo Scientific). To each well, 1 nM of SMAC-2F and increasing concentrations of protein were added to a final volume of 125 ul in the assay buffer (100 mM potassium phosphate, pH 7.5).
[2] = molecular target: Baculoviral IAP repeat-containing protein 3 (Homo sapiens, UniProt Q13489); assay: as §1
[3] = molecular target: Baculoviral IAP repeat-containing protein 2 (Homo sapiens, UniProt Q13490); assay: as §1

| SMILES | IC50 [1] [µM] | IC50 [2] [µM] | IC50 [3] [µM] |
| --- | --- | --- | --- |
| CN[C@@H](C)C(=O)N[C@H]1CN(C(=O)Nc2ccc(NC(=O)N3CC[C@H]4CC[C@@H](C(=O)N[C@H]5C[C@@H]5c5ccccc5F)N4C(=O)[C@@H](NC(=O)[C@H](C)NC)C3)cc2)CC[C@H]2CC[C@@H](C(=O)N[C@H]3C[C@@H]3c3ccccc3F)N2C1=O | < 1 | < 1 | < 1 |
| CN[C@@H](C)C(=O)N[C@H]1CN(C(=O)NCCCCCCNC(=O)N2CC[C@H]3CC[C@@H](C(=O)N[C@H]4CCC[C@H]4c4ccccc4)N3C(=O)[C@@H](NC(=O)[C@H](C)NC)C2)CC[C@H]2CCC(C(=O)N[C@H]3CCC[C@H]3c3ccccc3)N2C1=O (some centres not stated) | < 1 | < 3 | < 3 |
| CN[C@@H](C)C(=O)N[C@H]1CN(C(=O)NCCCCCCNC(=O)N2CC[C@H]3CC[C@@H](C(=O)NC4Cc5ccccc5C4)N3C(=O)[C@@H](NC(=O)[C@H](C)NC)C2)CC[C@H]2CCC(C(=O)NC3Cc4ccccc4C3)N2C1=O (some centres not stated) | < 1 | < 5 | < 10 |
| CN[C@@H](C)C(=O)N[C@H]1CN(C(=O)NCCCCCCNC(=O)N2CC[C@H]3CC[C@@H](C(=O)NCCc4ccccc4)N3C(=O)[C@@H](NC(=O)[C@H](C)NC)C2)CC[C@H]2CCC(C(=O)NCCc3ccccc3)N2C1=O (some centres not stated) | < 1 | < 5 | < 1 |
| CN[C@@H](C)C(=O)N[C@H]1CN(C(=O)Nc2ccc(NC(=O)N3CC[C@H]4CC[C@@H](C(=O)N[C@H]5CCC[C@H]5c5ccccc5)N4C(=O)[C@@H](NC(=O)[C@H](C)NC)C3)cc2)CC[C@H]2CC[C@@H](C(=O)N[C@H]3CCC[C@H]3c3ccccc3)N2C1=O | < 1 | < 1 | < 1 |
| CN[C@@H](C)C(=O)N[C@H]1CN(C(=O)Nc2ccc(Cc3ccc(NC(=O)N4CC[C@H]5CC[C@@H](C(=O)N[C@H]6C[C@@H]6c6ccccc6)N5C(=O)[C@@H](NC(=O)[C@H](C)NC)C4)cc3)cc2)CC[C@H]2CCC(C(=O)N[C@H]3C[C@@H]3c3ccccc3)N2C1=O (some centres not stated) | < 1 | < 3 | < 3 |
| CN[C@@H](C)C(=O)N[C@H]1CN(C(=O)NCCCCCCNC(=O)N2CC[C@H]3CC[C@@H](C(=O)N[C@H]4CC[C@@H]4c4ccccc4)N3C(=O)[C@@H](NC(=O)[C@H](C)NC)C2)CC[C@H]2CCC(C(=O)N[C@H]3CC[C@@H]3c3ccccc3)N2C1=O (some centres not stated) | < 1 | < 1 | < 1 |
| CN[C@@H](C)C(=O)N[C@H]1CN(C(=O)Nc2ccc(NC(=O)N3CC[C@H]4CC[C@@H](C(=O)N[C@H]5C[C@@H]5c5ccc(C(F)(F)F)c(F)c5)N4C(=O)[C@@H](NC(=O)[C@H](C)NC)C3)cc2)CC[C@H]2CC[C@@H](C(=O)N[C@H]3C[C@@H]3c3ccc(C(F)(F)F)c(F)c3)N2C1=O | < 3 | < 3 | < 3 |
| CN[C@@H](C)C(=O)N[C@H]1CN(C(=O)Nc2ccc(CCc3ccc(NC(=O)N4CC[C@H]5CC[C@@H](C(=O)NC(c6ccccc6)c6ccccc6)N5C(=O)[C@@H](NC(=O)[C@H](C)NC)C4)cc3)cc2)CC[C@H]2CCC(C(=O)NC(c3ccccc3)c3ccccc3)N2C1=O (some centres not stated) | < 0.03 | < 0.3 | < 0.3 |

Source: ChEMBL document CHEMBL3639096, “Bivalent inhibitors of IAP proteins and therapeutic methods using the same” (2014)
